Laboratory results taken from publication PMC9407317 (Proceedings of the National Academy of Sciences of the …, 2022).

Columns and labels:
SK4 K+ channel [1] = target: T1, SK4 K+ channel (Homo sapiens, UniProt O15554); assay: whole-cell patch clamp; assay type: cell-based; conditions: read-out: % inhibition at 0.5 μM
SK4 K+ channel [2] = target: T1, SK4 K+ channel; assay type: cell-based

T1 sequence (O15554 whole entry): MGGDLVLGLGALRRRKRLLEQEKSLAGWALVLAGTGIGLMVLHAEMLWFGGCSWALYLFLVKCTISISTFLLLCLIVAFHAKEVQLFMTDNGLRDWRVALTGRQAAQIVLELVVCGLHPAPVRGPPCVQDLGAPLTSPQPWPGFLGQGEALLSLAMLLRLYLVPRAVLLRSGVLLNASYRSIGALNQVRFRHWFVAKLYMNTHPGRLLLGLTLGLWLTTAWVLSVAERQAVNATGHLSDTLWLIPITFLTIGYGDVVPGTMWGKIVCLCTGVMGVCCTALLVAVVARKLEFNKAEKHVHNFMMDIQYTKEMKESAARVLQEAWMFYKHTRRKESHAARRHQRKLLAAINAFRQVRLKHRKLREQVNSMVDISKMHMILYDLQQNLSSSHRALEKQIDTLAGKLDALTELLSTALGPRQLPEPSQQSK

| EC50 (SK4 K+ channel [2]) | SMILES | inhibition at 0.5 µM (SK4 K+ channel [1]) |
| --- | --- | --- |
| – | Clc1ccccc1C(c1ccccc1)(c1ccccc1)n1cccn1 [Tram-34] | 86% |
| 0.154 µM | CCCCCCCC(=O)OC[C@H](COP(=O)(O)O[C@@H]1[C@H](O)[C@H](O)[C@@H](OP(=O)(O)O)[C@H](OP(=O)(O)O)[C@H]1O)OC(=O)CCCCCCC [diC8-PIP2] | – |
